ChEMBL document CHEMBL1201862, “PubChem BioAssay data set” (2004)
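Assay format: 96-well plates, 48-hour exposure. GI50 = concentration required for 50% inhibition of growth.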 Calls of active or inactive are those of the source. Cut-off read from the data, not from the text of the source: active = GI50 up to about 1.1 µM and inactive = higher.

Columns and labels:
Test in all cases: growth of human tumour cells (NCI), 48 h
A498 = test system: A498
A549 = test system: A549
CAKI-1 = test system: CAKI-1
CCRF-CEM = test system: CCRF-CEM
HCT-15 = test system: HCT-15
HOP-62 = test system: HOP-62
HT-29 = test system: HT-29
K562 = test system: K562
MOLT-4 = test system: MOLT-4
NCI-H23 = test system: NCI-H23
NCI-H460 = test system: NCI-H460
NCI/ADR-RES = test system: NCI/ADR-RES
OVCAR-4 = test system: OVCAR-4
SF-268 = test system: SF-268
SF-539 = test system: SF-539
SK-MEL-28 = test system: SK-MEL-28
SNB-75 = test system: SNB-75
UACC-257 = test system: UACC-257
UACC-62 = test system: UACC-62
UO-31 = test system: UO-31

SMILES	GI50 (A498)	GI50 (A549)	GI50 (CAKI-1)	GI50 (CCRF-CEM)	GI50 (HCT-15)	GI50 (HOP-62)	GI50 (HT-29)	GI50 (K562)	GI50 (MOLT-4)	GI50 (NCI-H23)	GI50 (NCI-H460)	GI50 (NCI/ADR-RES)	GI50 (OVCAR-4)	GI50 (SF-268)	GI50 (SF-539)	GI50 (SK-MEL-28)	GI50 (SNB-75)	GI50 (UACC-257)	GI50 (UACC-62)	GI50 (UO-31)
Cc1ccc(S(=O)(=O)NC(=O)NC2=NC(C)(C)N(c3ccc(Cl)c(Cl)c3)C(N)=N2)cc1	> 100 µM (inactive)	2.92 µM (inactive)	49.5 µM (inactive)	4.74 µM (inactive)	61.2 µM	7.59 µM (inactive)	28.7 µM (inactive)	1.94 µM (inactive)	7.43 µM (inactive)	11.4 µM (inactive)	36 µM (inactive)	> 100 µM (inactive)	> 100 µM (inactive)	20.5 µM (inactive)	29.2 µM (inactive)	> 100 µM (inactive)	31.6 µM (inactive)	36 µM (inactive)	7.59 µM (inactive)	> 100 µM (inactive)
Cc1ccc(OP2(=O)Oc3ccc4ccccc4c3CN2c2ccc(Cl)cc2)cc1C (configuration not stated)	> 100 µM (inactive)	> 100 µM (inactive)	> 100 µM (inactive)	> 100 µM (inactive)	> 100 µM	> 100 µM (inactive)	> 100 µM (inactive)	> 100 µM (inactive)	> 100 µM (inactive)	> 100 µM (inactive)	> 100 µM (inactive)	> 100 µM (inactive)	> 100 µM (inactive)	> 100 µM (inactive)	> 100 µM (inactive)	> 100 µM (inactive)	> 100 µM (inactive)	> 100 µM (inactive)	> 100 µM (inactive)	> 100 µM (inactive)
S=C(NCCCCCCNC(=S)Nc1c2ccccc2nc2ccccc12)Nc1c2ccccc2nc2ccccc12	> 91.8 µM (inactive)	87.5 µM (inactive)	> 100 µM (inactive)	63 µM (inactive)	76.4 µM	> 89.3 µM (inactive)	54.5 µM (inactive)	51.9 µM (inactive)	32.4 µM (inactive)	> 100 µM (inactive)	43.1 µM (inactive)	> 88.1 µM (inactive)	70 µM (inactive)	> 100 µM (inactive)	70.1 µM (inactive)	> 100 µM (inactive)	32.9 µM (inactive)	> 90.8 µM (inactive)	> 100 µM (inactive)	> 86.3 µM (inactive)
COc1ccccc1-c1cc(O)c2c(C)ccnc2n1	27.6 µM (inactive)	43.7 µM (inactive)	33 µM (inactive)	35.6 µM (inactive)	28.4 µM	30.1 µM (inactive)	33.1 µM (inactive)	14.2 µM (inactive)	31.7 µM (inactive)	29.9 µM (inactive)		19.3 µM (inactive)	46.2 µM (inactive)	45.5 µM (inactive)	30.8 µM (inactive)	84.3 µM (inactive)	12.9 µM (inactive)	47.9 µM (inactive)	42.9 µM (inactive)	33 µM (inactive)
O=C(c1ccccc1)N1C(=S)NC(=N/c2ccccc2)/C1=N\c1ccccc1	> 100 µM (inactive)	> 100 µM (inactive)	> 100 µM (inactive)	> 100 µM (inactive)	> 100 µM	> 100 µM (inactive)	> 100 µM (inactive)	> 100 µM (inactive)	> 100 µM (inactive)	> 100 µM (inactive)	> 100 µM (inactive)	> 100 µM (inactive)	> 100 µM (inactive)	> 100 µM (inactive)	> 100 µM (inactive)	> 100 µM (inactive)	> 100 µM (inactive)	> 100 µM (inactive)	> 100 µM (inactive)	> 100 µM (inactive)
CC(=O)OC1CCC2(C)C(=CCC3C2CCC2(C)C3CC3OC4(CCC(C)CN4)C(C)C32)C1 (configuration not stated)	> 100 µM (inactive)	> 100 µM (inactive)	> 100 µM (inactive)	> 100 µM (inactive)	> 100 µM	> 100 µM (inactive)	> 100 µM (inactive)	> 100 µM (inactive)	> 100 µM (inactive)	> 100 µM (inactive)	> 100 µM (inactive)	> 100 µM (inactive)	> 100 µM (inactive)	> 100 µM (inactive)	> 100 µM (inactive)	> 100 µM (inactive)	> 100 µM (inactive)	> 100 µM (inactive)	> 100 µM (inactive)	> 100 µM (inactive)
CCOC(=O)C[n+]1ccc2c([nH]c3cc(OC)ccc32)c1C	> 81.5 µM (inactive)	> 100 µM (inactive)	> 100 µM (inactive)	> 96.2 µM (inactive)	> 100 µM	> 78.3 µM (inactive)	> 100 µM (inactive)	> 100 µM (inactive)	> 67 µM (inactive)	> 100 µM (inactive)	> 88.1 µM (inactive)	> 100 µM (inactive)	> 100 µM (inactive)	> 100 µM (inactive)	> 100 µM (inactive)	> 100 µM (inactive)	> 100 µM (inactive)	> 100 µM (inactive)	> 100 µM (inactive)	> 39.4 µM (inactive)
ClCCN1CCOC1=C1C=CC=C1	> 100 µM (inactive)	> 100 µM (inactive)	> 100 µM (inactive)	80.4 µM (inactive)	> 100 µM	43.9 µM (inactive)	> 100 µM (inactive)		55.8 µM (inactive)	> 100 µM (inactive)	> 100 µM (inactive)	> 100 µM (inactive)		> 100 µM (inactive)	> 100 µM (inactive)	> 100 µM (inactive)	> 100 µM (inactive)	> 100 µM (inactive)		> 100 µM (inactive)
O=C(O)C1CCC(=O)N1S(=O)(=O)c1ccccc1 (configuration not stated)	> 100 µM (inactive)	> 100 µM (inactive)	> 100 µM (inactive)	> 100 µM (inactive)	> 100 µM	> 100 µM (inactive)	> 100 µM (inactive)	> 100 µM (inactive)	> 100 µM (inactive)	> 100 µM (inactive)	> 100 µM (inactive)	> 100 µM (inactive)	> 100 µM (inactive)	> 96.2 µM (inactive)	> 100 µM (inactive)	> 100 µM (inactive)	> 100 µM (inactive)	> 100 µM (inactive)	> 100 µM (inactive)	> 100 µM (inactive)
C=CC1(NC(=O)c2ccccc2)CCC(C(C)(C)C)CC1 (configuration not stated)	48.2 µM (inactive)	30.5 µM (inactive)		18.5 µM (inactive)	32.4 µM	35.8 µM (inactive)	23.9 µM (inactive)	30.8 µM (inactive)	10.6 µM (inactive)	32 µM (inactive)	31.1 µM (inactive)	19.6 µM (inactive)	27.7 µM (inactive)	43.2 µM (inactive)	44.3 µM (inactive)	42.6 µM (inactive)	31.5 µM (inactive)	26.4 µM (inactive)	26.6 µM (inactive)	22 µM (inactive)
O=C1CN(c2cccc(C(F)(F)F)c2)C(=O)CN1CCN1CC(=O)N(c2cccc(C(F)(F)F)c2)CC1=O		> 100 µM (inactive)		> 100 µM (inactive)	> 100 µM	> 100 µM (inactive)	> 100 µM (inactive)	> 100 µM (inactive)	> 100 µM (inactive)		> 100 µM (inactive)	> 100 µM (inactive)	> 100 µM (inactive)	> 100 µM (inactive)	> 100 µM (inactive)	> 100 µM (inactive)	> 100 µM (inactive)	> 100 µM (inactive)		> 100 µM (inactive)
CO/N=C(\C)c1ccc(Nc2nc3ccccc3c3occc23)cc1	16 µM (inactive)	17.3 µM (inactive)	16.4 µM (inactive)	16 µM (inactive)	15.1 µM	16 µM (inactive)	3.03 µM (inactive)	20.2 µM (inactive)	17.1 µM (inactive)	14.7 µM (inactive)	15.6 µM (inactive)	15.6 µM (inactive)		16.4 µM (inactive)	14.2 µM (inactive)			17.3 µM (inactive)	12.1 µM (inactive)	18.9 µM (inactive)
Cc1ccc(C(=O)N/N=C(\N=N\c2ccc([N+](=O)[O-])cc2)c2ccc(N(CCC#N)CCC#N)cc2C)cc1	64.9 µM (inactive)	70.1 µM (inactive)	> 100 µM (inactive)	39.8 µM (inactive)	> 100 µM	71.4 µM (inactive)	34.3 µM (inactive)	66.2 µM (inactive)	57.3 µM (inactive)	> 100 µM (inactive)	79.3 µM (inactive)	> 100 µM (inactive)	99.8 µM (inactive)	> 100 µM (inactive)	> 100 µM (inactive)	97.1 µM (inactive)	43.7 µM (inactive)	77.6 µM (inactive)		86.7 µM (inactive)
CCC(/C=C/c1ccccc1)=N\Nc1ccc(Cl)c(Cl)c1		39.7 µM (inactive)	34.9 µM (inactive)	62.4 µM (inactive)	29.7 µM	41.9 µM (inactive)	35.8 µM (inactive)	32.9 µM (inactive)	31 µM (inactive)	30.9 µM (inactive)	33.3 µM (inactive)	31.9 µM (inactive)		36.3 µM (inactive)	25.8 µM (inactive)	48.1 µM (inactive)	41.3 µM (inactive)	31.6 µM (inactive)	13.9 µM (inactive)	21.4 µM (inactive)
COC(=O)/C=C1\CCC(C)(C(=O)NS(=O)(=O)c2ccc(C)cc2)C1(C)C (configuration not stated)	> 100 µM (inactive)	> 100 µM (inactive)	> 100 µM (inactive)	> 100 µM (inactive)	> 100 µM	> 100 µM (inactive)		> 100 µM (inactive)	> 100 µM (inactive)	> 100 µM (inactive)	> 100 µM (inactive)	> 100 µM (inactive)	> 100 µM (inactive)	> 100 µM (inactive)	> 100 µM (inactive)			> 100 µM (inactive)	> 100 µM (inactive)	> 100 µM (inactive)
